Reference: patent publication US10682323B2, “Therapeutic agent for glaucoma” (TOA EIYO LTD., priority 2016, dated 2020)
pEC50: −log10 of the molar value.

Target: T1, human sGC (Homo sapiens, UniProt Q02153)
T1 construct: expressed in transfected cells; host or cells: CHO-K1 cells (Chinese hamster ovary), stably co-expressing mouse CNGA2 as the calcium read-out channel
T1 sequence (Q02153 1-619): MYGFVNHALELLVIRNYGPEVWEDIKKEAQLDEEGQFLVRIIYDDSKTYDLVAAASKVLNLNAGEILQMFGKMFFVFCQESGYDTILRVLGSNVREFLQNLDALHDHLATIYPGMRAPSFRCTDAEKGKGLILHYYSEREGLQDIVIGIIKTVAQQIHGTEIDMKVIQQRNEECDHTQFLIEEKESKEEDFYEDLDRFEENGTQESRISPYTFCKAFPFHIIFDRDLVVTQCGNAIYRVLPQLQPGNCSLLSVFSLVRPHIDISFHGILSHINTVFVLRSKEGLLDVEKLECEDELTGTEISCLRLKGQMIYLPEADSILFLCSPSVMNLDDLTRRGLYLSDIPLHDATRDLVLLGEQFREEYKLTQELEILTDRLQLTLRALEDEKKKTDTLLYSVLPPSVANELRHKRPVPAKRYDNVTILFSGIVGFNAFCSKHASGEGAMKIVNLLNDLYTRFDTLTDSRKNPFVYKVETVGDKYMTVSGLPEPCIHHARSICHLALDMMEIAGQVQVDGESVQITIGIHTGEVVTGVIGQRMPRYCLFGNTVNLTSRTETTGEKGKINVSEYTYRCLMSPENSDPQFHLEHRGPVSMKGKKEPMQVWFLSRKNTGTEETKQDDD
T1 sequence (Q02108 1-690 partner): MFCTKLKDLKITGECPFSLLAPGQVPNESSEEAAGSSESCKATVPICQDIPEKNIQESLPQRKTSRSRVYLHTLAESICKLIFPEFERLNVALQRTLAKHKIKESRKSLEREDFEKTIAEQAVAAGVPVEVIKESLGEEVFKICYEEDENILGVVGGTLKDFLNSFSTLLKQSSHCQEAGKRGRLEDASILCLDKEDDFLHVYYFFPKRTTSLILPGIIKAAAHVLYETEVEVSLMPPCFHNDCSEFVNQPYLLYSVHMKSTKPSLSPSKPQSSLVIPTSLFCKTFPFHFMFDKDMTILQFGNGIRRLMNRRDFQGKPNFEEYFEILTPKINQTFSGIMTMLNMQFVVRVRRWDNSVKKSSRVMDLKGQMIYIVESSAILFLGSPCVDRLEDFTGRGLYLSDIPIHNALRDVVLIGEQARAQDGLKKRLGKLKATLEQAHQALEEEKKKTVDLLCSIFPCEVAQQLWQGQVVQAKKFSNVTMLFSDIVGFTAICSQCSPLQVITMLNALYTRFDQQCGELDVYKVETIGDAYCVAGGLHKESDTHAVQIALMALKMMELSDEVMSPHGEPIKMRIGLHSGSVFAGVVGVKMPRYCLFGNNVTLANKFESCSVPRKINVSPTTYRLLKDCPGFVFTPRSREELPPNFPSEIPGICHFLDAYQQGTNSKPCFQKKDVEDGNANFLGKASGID
Experiment: Measurement of sGC activating effect in CHO-K1 cells stably expressing human sGC and mouse CNGA2
Format: cell-based
Details: CHO-K1 cells expressing human sGC and mouse CNGA2, Fura2 calcium readout, 10 μmol/L ODQ in assay buffer
Procedure: Chinese Hamster ovary cells (CHO-K1 cells) modified for stably expressing human sGC α subunit and β subunit, and a mouse cyclic nucleotide gated channel (CNGA2) were used in the test.
The CHO-K1 cells stably expressing human sGC and mouse CNGA2 were cultured at 37° C. in a F-12 medium supplemented with 10% (v/v) fetal bovine serum (FBS), penicillin (100 U/mL), streptomycin (100 μg/mL), G418 (250 μg/mL), and Zeocin (250 μg/mL). The cells were suspended in a culture medium, seeded in a 96 well plate, and cultured at 37° C. for 24 hours. The cells were washed with an assay buffer 1 (140 mmol/L of sodium chloride, 5 mmol/L of potassium chloride, 0.5 mmol/L of magnesium chloride, 0.01 mmol/L of calcium chloride, 10 mmol/L of glucose, 0.4 mmol/L of magnesium sulfate, 10 mmol/L of 4-(2-hydroxyethyl)piperazine-1-yl ethanesulfonic acid, 125 μmol/L of sulfinpyrazone, pH 7.4), and then an indicator solution in which Fura2-AM as a fluorescent Ca2+ indicator is dissolved in assay buffer 1 at a concentration of 5 μmol/L was added thereto, and cultured at 37° C. for 60 minutes. The culture medium was removed, the cells were washed with assay buffer 1, the test compound solution was added thereto, and cultured at room temperature for 10 minutes. The plate was mounted on a fluorescence microplate reader (FlexStation II, available from Molecular Devices) with setting of excitation wavelengths of 340 and 380 nm and a detection wavelength of 510 nm, an intracellular calcium concentration was measured as a fluorescent intensity ratio obtained from each excitation wavelength.
In this test, the solution of the test compound was prepared by dissolving each test compound in DMSO at a concentration of 10 mmol/L, and then diluting the solution with assay buffer 2 (140 mmol/L of sodium chloride, 5 mmol/L of potassium chloride, 0.5 mmol/L of magnesium chloride, 1 mmol/L of calcium chloride, 10 mmol/L of glucose, 0.4 mmol/L of magnesium sulfate, 10 mmol/L of 4-(2-hydroxyethyl)piperazine-1-yl ethanesulfonic acid, 125 μmol/L of sulfinpyrazone, 100 μmol/L of isobutylmethylxanthine, 10 μmol/L of 1H-[1,2,4]-oxadiazole [4,3-a]quinoxaline-1-on (hereinafter, referred to as ODQ), pH 7.4), in order to adjust the concentration of 10 μmol/L for testing. As a control solution, a DMSO diluted solution was used, instead of the test compound solution.
The activity of the test compound was calculated as an increase rate (%) of the sGC activity in the test compound solution relative to the sGC activity in the control solution, by dividing a fluorescent intensity ratio in adding the test compound by a fluorescent intensity ratio of the control solution, and subtracting the sGC activity in the control solution (100%) therefrom. An EC50 value was calculated from the activity of the test compound at concentrations of 0.0001, 0.001, 0.003, 0.01, 0.03, 0.1, 1, and 10 μmol/L, using a 4 parameter losgistic model from Assay Explorer (available from Dssault Systèmes BIOVIA).

`O=C(O)CCCCN(CCc1ccccc1OCc1ccc(CCc2ccccc2)cc1)Cc1ccc(C(=O)O)cc1` [Comparative Compound 1, reference compound] and `O=C(O)CCCCN(Cc1ccc(C(=O)O)cc1)C[C@H](OCc1ccc(CCc2ccccc2)cc1)c1ccccc1` [Compound No. 14, (−)-4-([N-(4-carboxybutyl)-N-[(2R)-2-[4-(2-phenylethyl)benzyloxy]-2-phenylethyl]amino]methyl)benzoic acid] are within 0.2 log units of each other in pEC50: 8.05 for the first, 8.24 for the second.

Going from `O=C(O)CCCCN(CCc1ccccc1OCc1ccc(CCc2ccccc2)cc1)C1COc2cc(C(=O)O)ccc21` (stereo not shown) [Comparative Compound 2, reference compound] to `O=C(O)CCCCN(Cc1ccc(C(=O)O)cc1)C[C@H](OCc1ccc(CCc2ccc(Cl)cc2)cc1)c1ccccc1` [Compound No. 6, (−)-4-([N-(4-carboxybutyl)-N-[(2R)-2-[4-[2-(4-chlorophenyl)ethyl]benzyloxy]-2-phenylethyl]amino]methyl)benzoic acid], the pEC50 rises from 7.71 to 8.50 (0.79 log units). The second is the more potent here.

Going from `N#Cc1cccc([C@H](CN(CCCCC(=O)O)Cc2ccc(C(=O)O)cc2)OCc2ccc(Oc3ccccc3)cc2)c1` [Comparative Compound 3, reference compound] to `CC(C)(C)c1cc(CO[C@@H](CN(CCCCC(=O)O)Cc2ccc(C(=O)O)cc2)c2ccccc2)cc(C(C)(C)C)c1` [Comparative Compound 4, reference compound], the pEC50 rises from 8.15 to 9.34 (1.19 log units).

For `O=C(O)CCCCN(CCc1ccccc1OCc1cccc2c1CCCC2)[C@H]1CCCc2cc(C(=O)O)ccc21` [Compound No. 8, (+)-(5S)-5-[N-(4-carboxybutyl)-N-[2-[2-(5,6,7,8-tetrahydronaphthalene-1-ylmethoxy)phenyl]ethyl]amino]-5,6,7,8-tetrahydronaphthalene-2-carboxylic acid], the pEC50 was 8.18.
